Columns and labels:
Details in all cases: 48 h
P12-Ichikawa [1] = experiment: AUC of viability dose-response curve (% viability x log10 dose units); higher = less sensitive
Procedure, shortened: (§1)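 Leukemia cells adapted to each medium were seeded at 500 or 1000 cells/well in 1536-well plates and dosed with library compounds in DMSO at 11 threefold doses from 47 μM to 0.79 nM for 48 h at 37°C. CellTiter-Glo One luminescence was normalised per plate to DMSO and cell-free wells, then fitted with a four-parameter log-logistic model over log10 doses. Area under the curve was taken from this fit by the trapezoidal rule, with curves above full viability scaled and curves failing quality control removed.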

SEM cells [2] = experiment: as above
Procedure, shortened: as §1

NOMO1 [3] = experiment: as above
Procedure, shortened: as §1

SEM cells [4] = experiment: cell viability relative to DMSO control; higher = less cytotoxic
Procedure, shortened: (§2)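 Library compounds in DMSO were pin-dosed in an 11-point threefold series (47 μM to 0.79 nM) onto leukemia cells in 1536-well plates (5 μl). Plates held 500 cells/well of NOMO1 or SEM or 1000 cells/well of P12-Ichikawa, each adapted for at least four passages in each medium. Luminescence was read with CellTiter-Glo One after 48 h at 37°C. Viability means the per-plate percentage relative to DMSO wells, using cell-free wells as background.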

P12-Ichikawa [5] = experiment: as above
Procedure, shortened: as §2

NOMO1 [6] = experiment: as above
Procedure, shortened: as §2

C[C@H]1O[C@H]([C@H](O)[C@@H]1O)N2\C=C(F)/C(=O)NC2=O
AUC of viability dose-response curve
Details	NOMO1 [3]	P12-Ichikawa [1]	SEM cells [2]
HPLM + 10% dialyzed FBS	441	443	460
RPMI 5 mM glucose + 10% FBS	460	440	454
RPMI 5 mM glucose + 10% dialyzed FBS	444	442	436

CC(=O)NCC(=O)N1[C@@H]2CC[C@H]1c1ccc(Nc3ncc(C(F)(F)F)c(NC4CCC4)n3)cc12
AUC of viability dose-response curve
Details	NOMO1 [3]	P12-Ichikawa [1]	SEM cells [2]
HPLM + 10% dialyzed FBS	358	258	247
RPMI 5 mM glucose + 10% FBS	344	268	227
RPMI 5 mM glucose + 10% dialyzed FBS	336	290	227

O=C(OCC#CCSc1nnc(-c2cccc3ccccc23)o1)c1cc2ccccc2s1
SEM cells [4], HPLM + 10% dialyzed FBS
Details	cell viability [%]
0.000781 µM	119
0.00234 µM	122
0.00702 µM	121
0.0211 µM	124
0.0632 µM	42.3
0.19 µM	132
0.569 µM	130
1.71 µM	115
5.12 µM	71.7
15.4 µM	128
46.1 µM	113

AUC of viability dose-response curve
Details	HPLM + 10% dialyzed FBS	RPMI 5 mM glucose + 10% FBS	RPMI 5 mM glucose + 10% dialyzed FBS
NOMO1 [3]	431	443	455
P12-Ichikawa [1]	451	444	468

Nc1cccc2c1C(=O)N(C1CCC(=O)NC1=O)C2=O (configuration not stated)
SEM cells [4], RPMI 5 mM glucose + 10% FBS
Details	cell viability [%]
0.000781 µM	117
0.00234 µM	126
0.00702 µM	103
0.0211 µM	98
0.0632 µM	96.9
0.19 µM	93.9
0.569 µM	76.6
1.71 µM	72.5
5.12 µM	80.2
15.4 µM	64.1
46.1 µM	37.7

AUC of viability dose-response curve
Details	NOMO1 [3]	P12-Ichikawa [1]	SEM cells [2]
HPLM + 10% dialyzed FBS	462	436	462
RPMI 5 mM glucose + 10% FBS	452	448	349
RPMI 5 mM glucose + 10% dialyzed FBS	466	450	388

COc1ccc2c(c1OC)C(=O)O[C@H]2[C@H]1c2c(cc3c(c2OC)OCO3)CCN1C
AUC of viability dose-response curve
Details	NOMO1 [3]	P12-Ichikawa [1]	SEM cells [2]
HPLM + 10% dialyzed FBS	246	284	263
RPMI 5 mM glucose + 10% FBS	273	277	233
RPMI 5 mM glucose + 10% dialyzed FBS	277	294	247

CCNC(=O)Nc1ccc2ncc(Nc3ccc(C)cc3)nc2n1
cell viability [%], SEM cells [4]
Details	HPLM + 10% dialyzed FBS	RPMI 5 mM glucose + 10% FBS
0.000781 µM	129	119
0.00234 µM	120	139
0.00702 µM	115	117
0.0211 µM	113	119
0.0632 µM	118	124
0.19 µM	109	98.3
0.569 µM	113	124
1.71 µM	108	114
5.12 µM	110	93.3
15.4 µM	68.1	59.3
46.1 µM	34.8	21.2

AUC of viability dose-response curve
Details	NOMO1 [3]	P12-Ichikawa [1]	SEM cells [2]
HPLM + 10% dialyzed FBS	430	459	437
RPMI 5 mM glucose + 10% FBS	453	465	418
RPMI 5 mM glucose + 10% dialyzed FBS	452	464	402

CNC(=O)N1\N=C(\C2=CC=C(N)C=C2)C3=CC4=C(OCO4)C=C3CC1C (configuration not stated)
cell viability [%], SEM cells [4]
Details	HPLM + 10% dialyzed FBS	RPMI 5 mM glucose + 10% FBS
0.000781 µM	111	120
0.00234 µM	113	134
0.00702 µM	130	124
0.0211 µM	121	145
0.0632 µM	142	138
0.19 µM	133	134
0.569 µM	122	132
1.71 µM	129	129
5.12 µM	98.3	79.9
15.4 µM	43.8	47.1
46.1 µM	8.25	8.13

AUC of viability dose-response curve
Details	NOMO1 [3]	P12-Ichikawa [1]	SEM cells [2]
HPLM + 10% dialyzed FBS	440	449	413
RPMI 5 mM glucose + 10% FBS	451	447	400
RPMI 5 mM glucose + 10% dialyzed FBS	449	449	392

C=C1C(=O)OC2/C=C(/C)CC/C=C(/C)CCC12 (configuration not stated)
AUC of viability dose-response curve
Details	NOMO1 [3]	P12-Ichikawa [1]	SEM cells [2]
HPLM + 10% dialyzed FBS	444	454	455
RPMI 5 mM glucose + 10% FBS	463	442	449
RPMI 5 mM glucose + 10% dialyzed FBS	457	448	446

Cn1cc(-c2ccc(F)c(C(F)(F)F)c2)nc1C1CCN(c2ncnc3[nH]ncc23)CC1
AUC of viability dose-response curve
Details	NOMO1 [3]	P12-Ichikawa [1]	SEM cells [2]
HPLM + 10% dialyzed FBS	447	463	441
RPMI 5 mM glucose + 10% FBS	447	444	461
RPMI 5 mM glucose + 10% dialyzed FBS	435	446	449

COc1ccccc1N1CCN(CCN(C(=O)C2CCCCC2)c2ccccn2)CC1
cell viability [%], SEM cells [4]
Details	HPLM + 10% dialyzed FBS	RPMI 5 mM glucose + 10% FBS
0.000781 µM	97.9	104
0.00234 µM	121	111
0.00702 µM	122	131
0.0211 µM	112	123
0.0632 µM	122	124
0.19 µM	120	135
0.569 µM	137	132
1.71 µM	133	131
5.12 µM	127	130
15.4 µM	122	111
46.1 µM	122	126

AUC of viability dose-response curve
Details	NOMO1 [3]	P12-Ichikawa [1]	SEM cells [2]
HPLM + 10% dialyzed FBS	466	470	468
RPMI 5 mM glucose + 10% FBS	469	472	467
RPMI 5 mM glucose + 10% dialyzed FBS	468	473	472

CC(=O)[C@]1(O)Cc2c(O)c3c(c(O)c2[C@@H](O[C@H]2C[C@H](N)[C@H](O)[C@H](C)O2)C1)C(=O)c1ccccc1C3=O
cell viability [%], SEM cells [4]
Details	HPLM + 10% dialyzed FBS	RPMI 5 mM glucose + 10% FBS	RPMI 5 mM glucose + 10% dialyzed FBS
0.000781 µM	118	104	126
0.00234 µM	127	117	110
0.00702 µM	123	113	116
0.0211 µM	124	104	125
0.0632 µM	128	97.8	113
0.19 µM	119	101	97.1
0.569 µM	98.8	80.3	90.3
1.71 µM	34.5	18.9	31.2
5.12 µM	8.24	7.45	6.01
15.4 µM	7.58	6.93	5.83
46.1 µM	6.23	4.81	4.8

AUC of viability dose-response curve
Details	HPLM + 10% dialyzed FBS	RPMI 5 mM glucose + 10% FBS	RPMI 5 mM glucose + 10% dialyzed FBS
NOMO1 [3]	364	367	374
SEM cells [2]	320	313	313

CO/N=C(/C(=O)N[C@@H]1C(=O)N2C(C(=O)O)=C(CSC(=O)c3ccco3)CS[C@H]12)c1csc(N)n1
cell viability [%]
Details	NOMO1 [6]	P12-Ichikawa [5]	SEM cells [4]
HPLM + 10% dialyzed FBS, 0.000781 µM	81.5	100	62.8
HPLM + 10% dialyzed FBS, 0.00234 µM	106	108	72.5
HPLM + 10% dialyzed FBS, 0.00702 µM	116	112	71.3
HPLM + 10% dialyzed FBS, 0.0211 µM	102	119	68.5
HPLM + 10% dialyzed FBS, 0.0632 µM	113	109	77.7
HPLM + 10% dialyzed FBS, 0.19 µM	103	111	76.5
HPLM + 10% dialyzed FBS, 0.569 µM	109	116	82.3
HPLM + 10% dialyzed FBS, 1.71 µM	85.5	118	77.6
HPLM + 10% dialyzed FBS, 5.12 µM	64.8	113	76.9
HPLM + 10% dialyzed FBS, 15.4 µM	53	109	88.4
HPLM + 10% dialyzed FBS, 46.1 µM	48.8	110	74.8
RPMI 5 mM glucose + 10% FBS, 0.000781 µM	89.4	98.1	77.5
RPMI 5 mM glucose + 10% FBS, 0.00234 µM	104	100	86.9
RPMI 5 mM glucose + 10% FBS, 0.00702 µM	99.4	117	89.6
RPMI 5 mM glucose + 10% FBS, 0.0211 µM	98.6	107	91.3
RPMI 5 mM glucose + 10% FBS, 0.0632 µM	103	105	97.8
RPMI 5 mM glucose + 10% FBS, 0.19 µM	103	106	102
RPMI 5 mM glucose + 10% FBS, 0.569 µM	109	98.6	106
RPMI 5 mM glucose + 10% FBS, 1.71 µM	92.5	104	105
RPMI 5 mM glucose + 10% FBS, 5.12 µM	90.9	98.9	90.6
RPMI 5 mM glucose + 10% FBS, 15.4 µM	73.8	103	108
RPMI 5 mM glucose + 10% FBS, 46.1 µM	77.2	96.2	103
RPMI 5 mM glucose + 10% dialyzed FBS, 0.000781 µM	82.9	95.6	89.1
RPMI 5 mM glucose + 10% dialyzed FBS, 0.00234 µM	97.4	104	93.8
RPMI 5 mM glucose + 10% dialyzed FBS, 0.00702 µM	99.9	112	107
RPMI 5 mM glucose + 10% dialyzed FBS, 0.0211 µM	111	108	117
RPMI 5 mM glucose + 10% dialyzed FBS, 0.0632 µM	104	112	93
RPMI 5 mM glucose + 10% dialyzed FBS, 0.19 µM	101	109	107
RPMI 5 mM glucose + 10% dialyzed FBS, 0.569 µM	111	104	118
RPMI 5 mM glucose + 10% dialyzed FBS, 1.71 µM	103	103	111
RPMI 5 mM glucose + 10% dialyzed FBS, 5.12 µM	82.5	102	120
RPMI 5 mM glucose + 10% dialyzed FBS, 15.4 µM	81.3	107	123
RPMI 5 mM glucose + 10% dialyzed FBS, 46.1 µM	58.5	104	113

AUC of viability dose-response curve
Details	HPLM + 10% dialyzed FBS	RPMI 5 mM glucose + 10% FBS	RPMI 5 mM glucose + 10% dialyzed FBS
NOMO1 [3]	413	453	449
P12-Ichikawa [1]	472	464	476

CCN(CC)C(=O)C1=CC=C(C=C1)C/2=C/C3(CCNCC3)OC4=CC=CC(=C24)O
AUC of viability dose-response curve
Details	NOMO1 [3]	P12-Ichikawa [1]	SEM cells [2]
HPLM + 10% dialyzed FBS	287	459	472
RPMI 5 mM glucose + 10% FBS	329	449	464
RPMI 5 mM glucose + 10% dialyzed FBS	345	449	464

CC1=CC=C(C=C1)\C2=N\C3=CC=C(Cl)C=C3OC2
AUC of viability dose-response curve
Details	NOMO1 [3]	P12-Ichikawa [1]	SEM cells [2]
HPLM + 10% dialyzed FBS	451	439	427
RPMI 5 mM glucose + 10% FBS	439	424	418
RPMI 5 mM glucose + 10% dialyzed FBS	457	440	392

Reference: the supplement of paper PMC11451515
